Data set [1] is described as follows: Pharmacokinetics in female Lewis rats. To be noted: for fraction of the dose absorbed (F): calculated from Eq. 4. In kind it is in vivo, rat. The method, then:
The same vehicles as these in pharmacodynamic studies for each compound and route of administration were used. Rats were implanted with catheters into the jugular vein and after a two-day period they were administered with the investigated compounds by the listed above routes of administration. […] Samples were subsequently centrifuged at 3000 × g for 10 min. Plasma was stored at −80°C until analysis.
A detailed description of these methods has been provided in the supplementary materials.
Firstly, the concentration-time data collected for each individual compound from one of the investigated rat strains (Wistar or Lewis) were subjected to a non-compartmental analysis (NCA). Subsequently, pharmacokinetic models were developed for each investigated compound and strain of rat. One- and two- compartment models with linear or non-linear elimination were tested. […] The final models were chosen based on the goodness-of-fit criteria, such as Akaike Information Criterion (AIC), Schwarz Bayesian Criterion (SBC), weighted sum of squared residuals (WSSR), a visual inspection of fitting, and precision of estimated parameters expressed as coefficients of variation % (CVs%). NCA analysis was performed in Phoenix WinNonlin v. 7.0 (Pharsight Corp., a Certara Company, Princeton, New Jersey). Pharmacokinetic model parameters were estimated in ADAPT 5 software (BMSR, Los Angeles, CA) using the weighted least squares algorithm. Fraction of the dose absorbed (F) following an extravascular (EV) administration was calculated according to the Eq. 4:4 F=AUC0−tEV·DIV/AUC0−tIV·DEV where AUC0-t is the area under concentration versus time curve from 0 to the last measured point and D is dose.
The route of (±)-LSF administration was selected based on the results of our recent study, where SC route of administration was recognized as the most preferential for this compound ([20]). The concentration-time data for each of the investigated compounds were simultaneously fitted to obtain a single set of pharmacokinetic parameters.
The remaining symbols and parameters have been explained and defined in Fig. 2 and Table II.
Then, the samples were extracted with 1 mL of dichloromethane for 20 min using a VXR Vibrax shaker (IKA, Germany). Subsequently, all tubes were centrifuged (10 000×g, 8 min) using EBA 12 R centrifuge (Hettich, Germany). Organic layers were collected and transferred to clear propylene tubes and evaporated in water bath under a gentle stream of nitrogen at 37°C. Dry residues were then dissolved in 100 μL of mobile phase and subjected to the HPLC analysis. The HPLC system (LaChrom Elite, Merck-Hitachi, Germany) consisted of an L-2130 pump, an L-2200 autosampler, and an L-2420 UV-VIS detector. EZChrome Elite v. 3.2 (Merck-Hitachi, Germany) computer program was used for data acquisition and integration. The separation of GRMS-55 was performed using a LiChrospher 100 RP-18 (250×4 mm) column with a particle size of 5 μm protected with a LiChroCART (4×4 mm, RP-18) guard column (Merck, Germany). […] The separation of both investigated compounds was performed at ambient temperature. […] In turn, the retention time of GRMS-55 was 9.2 min. and that of its IS was 5.3 min.

Data set [2] has as its system collagen-induced arthritis (CIA) in female Lewis rats. The experiment in a line: Collagen-induced arthritis in rats, paw swelling, PK/PD/DIS progression model. In kind it is in vivo, rat. The note with it: for decrease of relative paw swelling: at the last observation time point, once daily from day 20: rolipram 10 mg kg^−1 IP, GRMS-55 50 mg kg^−1 IP, (±)-LSF 80 mg kg^−1 SC. The method, then:
The emulsion of collagen was prepared according to the Protocol for the Successful Induction of Collagen-Induced Arthritis (CIA) in Rats (Chondrex Inc., 2015). Porcine type II collagen dissolved in 0.05 M acetic acid was emulsified with incomplete Freund’s adiuvant (Sigma Aldrich, Germany) using an Omni TH Homogenizer (Omni International, Inc., USA) consisting of a blade with 5 mm diameter. The collagen solution was previously mixed with IFA at a low speed for 1 min and then at the highest speed for 2 min. Then emulsion was being cooled for 5 min in an ice water bath. The emulsification process was repeated 3 times to obtain a stiff emulsion. The emulsion was then transferred into a Hamilton glass syringe, kept at 4°C, and used within 2 h.
At a day 0 of the experiment animals were subcutaneously (SC) injected at the base of the tail with 200 μL of the emulsion using a 27 gauge × 5/8″ needle and Hamilton syringe. At day 7 after the initial immunization, a booster injection with 100 μL of emulsion was performed. Ninety % of rats developed symptoms of disease (paw swelling >150% of day 0) at day 20 of the experiment. At this day, diseased animals were randomly divided into five groups (n = 6). […] One investigated group received (±)-LSF dissolved in saline at an SC dose of 80 mg kg^−1 once daily. The corresponding control groups were administered with appropriate volumes of vehicles IP or SC. At day 40 animals were sacrificed. Hind paws of rats were taken and immersed into 4% buffered formalin solution for a subsequent histological analysis. Blood samples were collected and allowed to clot for 20 min and then centrifuged at 2000 x g for 15 min. Serum samples were collected and frozen at -80°C.
Paw edema of arthritic rats was assessed as swelling of the rat hind paws. Measurements of paws were performed using a digital caliper according to the procedure described by Earp et al. ([18]). Each hind leg was measured at two sections, i.e., paw and ankle, and each section was measured at two places (side-to-side and top-to-bottom). The area of each section (elliptical in shape) was calculated from the following equation:2 Area=π·a·b/4 where (a) is side-to-side diameter of the ellipse and (b) is top-to-bottom diameter of the ellipse. Paw and ankle section areas of each leg were subsequently added to obtain one overall measure for the rat hind paw (Areaoverall). Each of these measures was normalized to the same hind paw area measured at day 0 of the experiment (Areazero) to reduce variation in the disease progression resulting from differences in paw size of each rat. Relative paw swelling (Paw) was calculated according to the equation:3 Paw=Areaoverall/Areazero
Paw size was measured at days 0, 5, 7, 11, 15, 18, 20, 22, 26, 30, 33, and 36 after the first immunization. […]

[3] abbreviates: rat, plasma, other: GRMS-55 IV and IP, rolipram IP, female Lewis rats, read-out: half-life calculated as ln2·V1/Clt (elimination half-life).
[4] abbreviates: Rattus norvegicus, 480 h, read-out: IC50, concentration producing 50% of maximal inhibition (CIA progression), Final estimate (CV%).

In brackets after ≈: the same amount, converted by molar mass. Like-named read-outs stand apart in the source and are kept apart here.

Turning to `CC(O)CCCCn1c(=O)c2c(ncn2C)n(C)c1=O` (racemic) [(±)-LSF, lisofylline], the “fraction of the dose absorbed (F)” value in data set [1] (female Lewis rats, SC administration) is 95%. Further, the “volume of distribution, times lower in female Lewis rats compared to male Wistar rats” value in data set [1] (female Lewis vs male Wistar rats) was 3.3 times. In addition, the half-life in data set [1] (rat, plasma, 80 mg kg^-1, female Lewis rats, SC administration, flip-flop pharmacokinetics, read-out: plasma terminal half-life) is 23 min. The Vd in data set [1] (rat, plasma, other: IV and SC, female Lewis rats, (±)-LSF IV 40 and SC 80 mg kg^−1, read-out: VLSF, volume of distribution of (±)-LSF, Estimate (CV%)) was 0.37 L/kg. Also, in data set [1] (rat, plasma, other: IV and SC, female Lewis rats, (±)-LSF IV and SC, read-out: kd, overall parent elimination rate constant, Estimate (CV%) (converted)), the k el was 0.00353 s⁻¹. Besides, the “decrease of relative paw swelling” value in data set [2] worked out at 30.5%.
As to `Cn1c(=O)c2c(nc(NCCc3ccccc3)n2CCCC(=O)NN=Cc2ccccc2O)n(C)c1=O` [GRMS-55, 4-(1,3-Dimethyl-2,6-dioxo-8-(phenethylamino)-2,3,6,7-tetrahydro-1H-purin-7-yl)-N′-(2-hydroxybenzylidene)butanehydrazide], the “fraction of the dose absorbed (F)” value in data set [1] (female Lewis rats, IP administration) was 23%. The half-life in data set [1] (setting [3]) was 21 min. The IC50 at 50 mg/kg in data set [2] (setting [4]) was 0.26 µg/mL (≈ 0.516 µM). In addition, the “decrease of relative paw swelling” value in data set [2] is 31.5%.
Regarding `COc1ccc(C2CNC(=O)C2)cc1OC1CCCC1` (stereo not shown) [Rolipram, rolipram], the Vd/F in data set [1] (female, Lewis, rat, plasma, ip, 10 mg/kg, read-out: V(ROL)/F, volume of distribution divided by fraction absorbed, Estimate (CV%)) is 1.02 L/kg. The half-life in data set [1] (setting [3]) was 30 min. Also, in data set [2] (setting [4]), the IC50 was 0.01 µg/mL (≈ 0.0363 µM).

The values are drawn from PMC6940354, “Comparative Assessment of the New PDE7 Inhibitor – GRMS-55 and Lisofylline in Animal Models of Immune-Related Disorders: A PK/PD Modeling Approach” (Pharmaceutical Research, 2020).
